Read-outs that look alike come from different tables or passages of the source.
How the values were obtained:
human kinase Mps-1 [1] = molecular target: T1, human kinase Mps-1 (Homo sapiens (Human), UniProt P33981); test: biochemical
human kinase Mps-1 [2] = molecular target: T1, human kinase Mps-1; details: read-out: Mps-1 IC50; N-terminally GST-tagged human full length recombinant Mps-1; 10 μM ATP; 1 μM biotinylated peptide substrate; 60 min at 22° C.

T1 sequence (P33981 whole entry): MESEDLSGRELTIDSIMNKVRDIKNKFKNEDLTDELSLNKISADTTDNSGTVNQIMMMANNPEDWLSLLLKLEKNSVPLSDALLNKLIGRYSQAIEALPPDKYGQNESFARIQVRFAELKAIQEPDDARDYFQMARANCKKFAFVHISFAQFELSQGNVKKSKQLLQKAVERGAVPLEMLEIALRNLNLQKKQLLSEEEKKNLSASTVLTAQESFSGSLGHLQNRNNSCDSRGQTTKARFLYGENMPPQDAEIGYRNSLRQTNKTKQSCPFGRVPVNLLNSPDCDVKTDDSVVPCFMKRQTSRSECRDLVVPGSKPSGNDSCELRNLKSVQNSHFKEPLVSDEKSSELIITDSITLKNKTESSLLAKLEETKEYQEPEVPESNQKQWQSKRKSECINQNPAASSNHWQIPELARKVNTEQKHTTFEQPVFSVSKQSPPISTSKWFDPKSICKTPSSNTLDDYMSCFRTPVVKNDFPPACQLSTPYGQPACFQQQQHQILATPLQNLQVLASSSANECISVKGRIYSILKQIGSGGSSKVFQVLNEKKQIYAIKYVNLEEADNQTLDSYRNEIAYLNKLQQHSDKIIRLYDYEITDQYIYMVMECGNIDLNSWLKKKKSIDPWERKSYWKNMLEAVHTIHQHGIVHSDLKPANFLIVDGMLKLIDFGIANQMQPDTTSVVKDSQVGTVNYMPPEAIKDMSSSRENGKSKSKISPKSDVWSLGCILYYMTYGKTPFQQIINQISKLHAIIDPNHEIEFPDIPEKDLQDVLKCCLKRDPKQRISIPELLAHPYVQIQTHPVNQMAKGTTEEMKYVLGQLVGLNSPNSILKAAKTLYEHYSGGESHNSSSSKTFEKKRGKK

| IC50 (human kinase Mps-1 [1]) | IC50 (human kinase Mps-1 [2]) | Structure (SMILES) |
| --- | --- | --- |
| 43 nM | – | Cc1cc(-c2cnc3c(NCCC(F)(F)F)nc(C#CCO)cn23)ccc1C(=O)NC1C[C@@H]1F (stereo in doubt) [Example 76, N-[rel(1S,2S)-2-fluorocyclopropyl]-4-{6-(3-hydroxyprop-1-yn-1-yl)-8-[(3,3,3-trifluoropropyl)amino]imidazo[1,2-a]pyrazin-3-yl}-2-methylbenzamide] |
| 230 nM | – | NCCCNc1nc(C#CCO)cn2c(-c3ccc(-c4cnc(C5CC5)[nH]4)cc3)cnc12 [Example 60, 3-{8-[(3-Aminopropyl)amino]-3-[4-(2-cyclopropyl-1H-imidazol-5-yl)phenyl]imidazo[1,2-a]pyrazin-6-yl}prop-2-yn-1-ol] |
| – | 310 nM | COC1(NC(=O)c2ccc(-c3cnc4c(NCCC(F)(F)F)nc(C#CCO)cn34)cc2C)CC1 [Example 75, 4-{6-(3-hydroxyprop-1-yn-1-yl)-8-[(3,3,3-trifluoropropyl)amino]imidazo[1,2-a]pyrazin-3-yl}-N-(1-methoxycyclopropyl)-2-methylbenzamide] |
